Results on one substance are retold here after patent publication US20200239587A1, “SENSITIZATION OF TUMORS TO THERAPIES THROUGH ENDOGLIN ANTAGONISM” (Cedars-Sinai Medical Center, priority 2016, published 2020).

For one experiment, the system named is PC3. In words: Clonogenic survival assay with radiation. It is filed as cell-based, human. As to conditions: p53 null prostate cancer cell line. Here is the method: (§1) Assays were performed on cell lines with p53 null prostate cancer cell line, FIG. 23A) PC3 and two p53 mutant pancreatic cancer cell lines, FIG. 23B) MIAPACA-2 and FIG. 23C) HPAF-II with indicated doses of radiation. Breast cancer cell lines with intact p53, FIG. 23D) MCF7 and mutant yet functional p53, FIG. 23E) MDA-MB23 were however radio-sensitized by the 1 μg/ml TRC105.

A further experiment concerns HPAF-II. In words: Clonogenic survival assay with radiation. As to conditions: p53 mutant pancreatic cancer cell line. The class given is cell-based, human. Here is the method: as §1
Another experiment has as its system MIAPACA-2. The experiment can be described thus: Clonogenic survival assay with radiation. As to conditions: p53 mutant pancreatic cancer cell line. It is filed as cell-based, human. On the procedure:
as §1

The test system of another experiment is MDAMB231. In words: Clonogenic survival assay with radiation. It is filed as cell-based, human. As to conditions: breast cancer cell line with mutant yet functional p53; 1 μg/ml TRC105. On the procedure: as §1
A further experiment deals with MCF7. In words: Clonogenic survival assay with radiation. The settings on record: breast cancer cell line with intact p53; 1 μg/ml TRC105. It is filed as cell-based, human. On the procedure: as §1
The test system of a further experiment is p53 in 22Rv1 cells. In words: p53 status after irradiation. It is filed as cell-based, human. On the procedure:
In search for an alternate process mediating TRC105 radiation sensitization the inventors examined changes in cell cycle. The impact of radiation on the cell cycle is well described, as causing a G2 cell cycle arrest that undergoes cell cycle redistribution. […] As SIRT1 has previously been reported to regulate p53 stability by de-acetylating p53, the inventors investigated p53 status with TRC105 treatment. 22Rv1 cells were treated with either TRC105 or 200 μM nicotinamide, an inhibitor of SIRT1 activity, prior to irradiation (4Gy). Cells were then collected at 0, 1, and 7 days post radiation to elucidate early and late p53 response. […] While loss-of-function p53 mutations are rare in prostate cancer, 90% of pancreatic cancers have p53 mutations. We therefore used two p53 mutant pancreatic cancer cell lines: HPAF-II and MIAPACA-2 to identify if TRC105 unresponsiveness to radiation was due to p53 loss of functionality.

Experiment [1] has as its system androgen receptor variants and RNPC1. The experiment can be described thus: Androgen receptor variants and RNPC1 expression. The class given is cell-based.

“Also recorded” adds a separate entry of the source.

For the substance “TRC105: partially humanized monoclonal antibody that blocks BMP signaling; human-specific CD105 (endoglin) neutralizing antibody from Tracon Pharmaceuticals”, the results for the “radiation sensitivity, clonogenic survival” value with PC3, with MDAMB231 and in the experiment on MCF7 were “no evidence of radiation sensitization”, “positively sensitized to irradiation; also recorded: radio-sensitized” and “positively sensitized to irradiation; also recorded: radio-sensitized”, respectively. For the same substance, the “radiation sensitivity, clonogenic response” value with HPAF-II and in the experiment on MIAPACA-2 was “neither the HPAF-II nor MIAPACA-2 cell lines treated with radiation showed a change in clonogenic response” each time. Also, in the experiment on p53 in 22Rv1 cells (by 7 days post radiation), the “acetylated and total-p53” value was “markedly increased”. Further, the “anti-apoptotic protein Bc1-2” value in the experiment with p53 in 22Rv1 cells (prior to 4Gy irradiation) was “decrease in the anti-apoptotic protein Bc1-2”. Moreover, in the experiment with p53 in 22Rv1 cells (prior to 4Gy irradiation), the p21 result was “increase in p21”. Also, the “acetylated p53” value in the experiment with p53 in 22Rv1 cells (treatment prior to 4Gy, nicotinamide 200 μM) is recorded as “increase in acetylated p53”. The “RNPC1 (RBM38) expression” value in experiment [1] (TRC105) is “down regulated”. Besides, the “androgen receptor variants expression” value in experiment [1] (TRC105) is given as “down regulated; also recorded: down-regulated”. Further, the “Notch and IL-6 mediated ARv expression” value in experiment [1] (antagonizing endoglin) was “down regulate Notch and IL-6 mediated ARv expression”.
